From paper PMC7921015, “Spatiotemporal GLP-1 and GIP receptor signaling and trafficking/recycling dynamics induced by selected receptor mono- and dual-agonists” (Molecular Metabolism, 2021) come the findings set out here.

The target in test [1] is T1, human GLP-1R (Homo sapiens, UniProt P43220).
T1 construct: host or cells: HEK293T
Put plainly: cAMP assay (CAMYEL BRET sensor), GLP-1R. Type of test: cell-based. On the procedure: (§1) The cells were seeded (700,000 cells/well) in 6-well plates and incubated to ∼70% confluency in complete media supplemented with 10% FBS and 1% Pen-Strep. […] Baseline measurements were taken after 5 min of incubation with coelenterazine-h or NanoGlo. The cells were then treated with a vehicle or the respective agonists. […] The temporal data of the vehicle-corrected agonist measurement was then normalized to the baseline reading of the same well. The first BRET reading following treatment with agonist/vehicle was the subsequent measurement after the zero time point. Positive or negative incremental areas under the curves (+iAUC/-iAUC) were calculated where noted. Each experiment was independently performed at least three times, with at least two technical replicates for each group.
(§2) CAMYEL, a cAMP sensor using YFP-Epac-RLuc was utilized to quantify cAMP accumulation with the temporal resolution. Then, 500 ng of CAMYEL DNA was co-transfected with 500 ng of DNA of untagged GLP-1R or GIPR per well in a 6-well plate. The experiments were performed in the absence of 3-isobutyl-1-methylxanthine (IBMX).
(§3) Data are represented as means ± S.E.M. Each experiment was independently conducted at least three times, each with at least two technical replicates. […] Dose responses were fitted using non-linear regression. pEC50 and EC50 values were calculated using GraphPad Prism 8.0 (GraphPad, San Diego, CA, USA). Statistical analyses were calculated in GraphPad 8.0 using one-way analysis of variance (ANOVA) and corrected with Tukey's or Bonferroni's multiple comparison test. Differences are considered significant with an adjusted p value < 0.05.
In general terms: Cyclic AMP is a second messenger, typically raised through Gs and lowered through Gi signalling.

For test [2], the target named is T2, human GIPR (Homo sapiens, UniProt P48546).
T2 sequence (P48546 22-466): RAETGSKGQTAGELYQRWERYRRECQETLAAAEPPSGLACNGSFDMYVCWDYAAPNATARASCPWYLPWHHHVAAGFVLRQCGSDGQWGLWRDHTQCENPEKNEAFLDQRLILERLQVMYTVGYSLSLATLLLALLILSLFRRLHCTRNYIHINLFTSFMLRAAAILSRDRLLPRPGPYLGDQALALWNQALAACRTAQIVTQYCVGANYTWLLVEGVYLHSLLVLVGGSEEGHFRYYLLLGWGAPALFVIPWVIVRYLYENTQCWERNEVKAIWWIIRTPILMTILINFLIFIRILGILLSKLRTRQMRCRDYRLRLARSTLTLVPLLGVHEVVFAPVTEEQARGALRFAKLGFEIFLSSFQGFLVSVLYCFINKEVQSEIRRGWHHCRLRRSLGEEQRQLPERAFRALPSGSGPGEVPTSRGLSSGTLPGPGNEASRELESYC
Put plainly: β-arrestin 2 recruitment BRET assay, GIPR. It is filed as cell-based. The following applies: HEK293T, GIPR-GFP + β-arrestin2-RLUC8, BRET, +iAUC 30 min. The procedure:
as §1
(§4) Co-localization of β-arrestin1/2-RLUC8 with GLP-1R-GFP or GIPR-GFP was assessed.
as §3
A general note: Activated receptors often draw arrestin, which recruitment assays turn into a signal.

Test [3] addresses T2, human GIPR. Put plainly: β-arrestin 1 recruitment BRET assay, GIPR. Type of test: cell-based. On the procedure:
as §1, §4, §3

The target in test [4] is T2, human GIPR. As to the kind of experiment: cAMP assay (CAMYEL BRET sensor), GIPR. Type of test: cell-based. The procedure:
as §1, §2, §3

In test [5] the target is T1, human GLP-1R. As to the kind of experiment: GPCR internalization assay (loss of BRET with Venus-KRAS), GLP-1R. The following applies: HEK-293T, HEK293T, hGLP-1R-Rluc8 + Venus-KRAS, iAUC 60 min, mean ± SEM, at least 3 experiments, SEM, read-out: Receptor Internalization Emax (% GLP-1). Type of test: cell-based.
Test [6] concerns the target T1, human GLP-1R. As to the kind of experiment: Endosomal trafficking assay (Venus-Rab5/7/11 co-localization), GLP-1R, HEK293T. It is filed as cell-based. The following applies: six experiments. The procedure:
GPCR endosomal trafficking was assessed by measuring the ligand-stimulated gain in resonance energy transfer between Venus-Rab5/7/11 and hGLP-1R-RLUC8 or hGIPR-RLUC. Then, 100 ng of the respective Venus-Rab subtype DNA and 100 ng of hGLP-1R-RLUC8 or hGIPR-RLUC8 DNA were co-transfected into each well in a 6-well plate.

The target of test [7] is T2, human GIPR. Put plainly: GPCR internalization assay (loss of BRET with Venus-KRAS), GIPR. Type of test: cell-based. The following applies: HEK293T, hGIPR-Rluc8 + Venus-KRAS, iAUC 20 min, mean ± SEM, SEM.
Test [8] deals with T2, human GIPR. Put plainly: Gαs (mini-G) recruitment BRET assay, GIPR. The following applies: HEK293T, GIPR-GFP + NLuc-mini-G, +iAUC 60 min. It is filed as cell-based. Background: BRET reads energy transfer from a luciferase to a nearby fluorophore.
The target in test [9] is T1, human GLP-1R. Put plainly: Gαq (mini-G) recruitment BRET assay, GLP-1R. The following applies: HEK-293T, HEK293T, GLP-1R-GFP + NLuc-mini-G, +iAUC 60 min, mean ± SEM, at least 3 experiments. Type of test: cell-based.
Test [10] addresses T1, human GLP-1R. Put plainly: Gαs (mini-G) recruitment BRET assay, GLP-1R. It is filed as cell-based. The following applies: HEK-293T, HEK293T, GLP-1R-GFP + NLuc-mini-G, +iAUC 60 min, mean ± SEM, at least 3 experiments.
Test [11] concerns the target T2, human GIPR. Put plainly: Gαq (mini-G) recruitment BRET assay, GIPR. It is filed as cell-based. The following applies: HEK293T, GIPR-GFP + NLuc-mini-G, +iAUC 60 min.
For test [12], the target named is Human GLP-1R-GFP (human) (UniProt P43220).
Human GLP-1R-GFP (human), sequence (P43220 24-463): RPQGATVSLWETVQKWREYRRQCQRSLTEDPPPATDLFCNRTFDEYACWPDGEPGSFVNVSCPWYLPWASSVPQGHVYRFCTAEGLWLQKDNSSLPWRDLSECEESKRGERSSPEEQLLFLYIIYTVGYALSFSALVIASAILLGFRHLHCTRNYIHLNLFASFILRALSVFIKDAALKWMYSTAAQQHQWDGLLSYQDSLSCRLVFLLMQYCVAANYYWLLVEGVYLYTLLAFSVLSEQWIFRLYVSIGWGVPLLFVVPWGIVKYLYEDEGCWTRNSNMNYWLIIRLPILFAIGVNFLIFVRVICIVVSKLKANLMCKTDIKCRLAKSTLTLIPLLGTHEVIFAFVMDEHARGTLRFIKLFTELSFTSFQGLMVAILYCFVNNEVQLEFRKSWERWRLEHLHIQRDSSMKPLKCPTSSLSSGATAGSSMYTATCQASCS
The target is the same in test [13]. This is another data set of the same source.

T1 sequence (P43220 24-463): as above

For the molecule `CCCCCCCCCCCCCCCC(=O)NCCCC[C@H](NC(=O)[C@H](CO)NC(=O)[C@@H]1CCCN1C(=O)[C@@H]1CCCN1C(=O)[C@@H]1CCCN1C(=O)[C@H](C)NC(=O)CNC(=O)[C@H](CO)NC(=O)[C@H](CO)NC(=O)[C@@H]1CCCN1C(=O)CNC(=O)CNC(=O)[C@H](C)NC(=O)[C@H](CC(C)C)NC(=O)[C@H](CC(C)C)NC(=O)[C@H](Cc1c[nH]c2ccccc12)NC(=O)[C@H](CC(N)=O)NC(=O)[C@@H](NC(=O)[C@H](Cc1ccccc1)NC(=O)[C@H](CCC(=O)O)NC(=O)C(C)(C)NC(=O)[C@H](C)NC(=O)[C@H](C)NC(=O)[C@H](CCC(N)=O)NC(=O)[C@H](CCCCN)NC(=O)[C@H](CC(=O)O)NC(=O)[C@H](CC(C)C)NC(=O)[C@H](Cc1ccc(O)cc1)NC(=O)[C@@H](NC(=O)[C@H](CO)NC(=O)[C@H](Cc1ccc(O)cc1)NC(=O)[C@H](CC(=O)O)NC(=O)[C@H](CO)NC(=O)[C@@H](NC(=O)[C@H](Cc1ccccc1)NC(=O)[C@@H](NC(=O)CNC(=O)[C@H](CCC(=O)O)NC(=O)C(C)(C)NC(=O)[C@@H](N)Cc1ccc(O)cc1)[C@@H](C)O)[C@@H](C)CC)[C@@H](C)CC)C(C)C)C(N)=O` [fatty acyl-GIP], the EC50 at human GLP-1R [1] was 181 nM; on human GIPR [2] (read-out: β-arr2 Recruitment EC50), > 1000 nM; at human GIPR [3] (read-out: β-arr1 Recruitment EC50; HEK293T, GIPR-GFP + β-arrestin1-RLUC8, BRET, +iAUC 30 min), > 1000 nM; at human GIPR [4] it was 1.34 nM. Besides, at human GIPR [4] (HEK-293T, HEK293T transiently expressing untagged GIPR, CAMYEL sensor, no IBMX, +iAUC of 25 min response, 3-parameter fit, mean ± SEM, at least 3 experiments, SEM, read-out: cAMP Emax (% GIP)), the Emax worked out at 97 ± 2%.

`CC[C@H](C)[C@H](NC(=O)[C@H](CC(C)C)NC(=O)[C@H](Cc1c[nH]c2ccccc12)NC(=O)[C@H](CCC(N)=O)NC(=O)[C@@H](NC(=O)[C@H](Cc1ccccc1)NC(=O)[C@H](C)NC(=O)[C@H](CCCCNC(=O)COCCOCCNC(=O)COCCOCCNC(=O)CC[C@H](NC(=O)CCCCCCCCCCCCCCCCCCC(=O)O)C(=O)O)NC(=O)[C@H](CCC(N)=O)NC(=O)[C@H](C)NC(=O)[C@@H](NC(=O)[C@H](CCCCN)NC(=O)[C@H](CC(=O)O)NC(=O)[C@H](CC(C)C)NC(=O)C(C)(C)NC(=O)[C@@H](NC(=O)[C@H](CO)NC(=O)[C@H](Cc1ccc(O)cc1)NC(=O)[C@H](CC(=O)O)NC(=O)[C@H](CO)NC(=O)[C@@H](NC(=O)[C@H](Cc1ccccc1)NC(=O)[C@@H](NC(=O)CNC(=O)[C@H](CCC(=O)O)NC(=O)C(C)(C)NC(=O)[C@@H](N)Cc1ccc(O)cc1)[C@@H](C)O)[C@@H](C)O)[C@@H](C)CC)[C@@H](C)CC)C(C)C)C(=O)N[C@@H](C)C(=O)NCC(=O)NCC(=O)N1CCC[C@H]1C(=O)N[C@@H](CO)C(=O)N[C@@H](CO)C(=O)NCC(=O)N[C@@H](C)C(=O)N1CCC[C@H]1C(=O)N1CCC[C@H]1C(=O)N1CCC[C@H]1C(=O)N[C@@H](CO)C(N)=O` [tirzepatide, reference compound]: the Emax came to 24 ± 4% at human GLP-1R [5]; 102 ± 4% on human GLP-1R [1] (HEK-293T, HEK293T transiently expressing untagged GLP-1R, CAMYEL sensor, no IBMX, +iAUC of 25 min response, 3-parameter fit, mean ± SEM, at least 3 experiments, SEM); 18 ± 1% at human GIPR [7] (HEK-293T, at least 3 experiments, read-out: Receptor Internalization Emax (% GIP)); 43 ± 3% on human GIPR [8] (HEK-293T, mean ± SEM, at least 3 experiments, SEM, read-out: Gαs Recruitment Emax (% GIP)); 17% at human GLP-1R [9]; 31% at human GLP-1R [10]. On human GIPR [11] (HEK-293T, mean ± SEM, at least 3 experiments, read-out: Gαq Recruitment Emax (% GIP)), the Emax was 85%. Besides, on human GLP-1R [6] (1 μM stimulation, hGLP-1R-Rluc8 + Venus-Rab5 (early endosomes), +iAUC), the “total GLP-1R Rab5 co-localization, of that elicited by GLP-1 (7–36 amide)” value is recorded as 13%. In addition, the “co-localization of GLP-1R with Rab7 positive (late) endosomes, of the response of GLP-1 (7–36 amide)” value on human GLP-1R [6] (hGLP-1R-Rluc8 + Venus-Rab7, +iAUC) was found to be 24%. Further, on human GLP-1R [6] (hGLP-1R-Rluc8 + Venus-Rab11, +iAUC), the “GLP-1R co-localization with Rab11-positive recycling endosomes, decrease vs GLP-1 (7–36 amide)” value stood at 54%. The EC50 on human GIPR [2] (mean ± SEM, SEM, read-out: β-arr2 Recruitment pEC50 (converted)) is 39.8 nM; at human GIPR [3] (HEK293T, GIPR-GFP + β-arrestin1-RLUC8, BRET, +iAUC 30 min; read-out: β-arr1 Recruitment EC50), > 1000 nM; at human GIPR [3] (HEK293T, GIPR-GFP + β-arrestin1-RLUC8, BRET, +iAUC 30 min; read-out: β-arr1 Recruitment pEC50 (converted)), > 1000 nM; at human GIPR [7] (read-out: Receptor Internalization pEC50 (converted)), 4.68 nM; at human GIPR [8] (read-out: Gαs Recruitment EC50), 324 nM; on human GIPR [11] (mean ± SEM, SEM, read-out: Gαq Recruitment pEC50 (converted)), 132 nM. For the same molecule, the EC50 on human GIPR [11] (read-out: Gαq Recruitment EC50) was 164 nM; on human GIPR [4] (HEK293T, GIPR, CAMYEL sensor, no IBMX, +iAUC 25 min, read-out: cAMP EC50) it was 13.3 nM. On human GIPR [11] (mean ± SEM, at least 3 experiments, listed as Dual Agonist (Tirzepatide), SEM), the “Gαq Recruitment Emax (% GIP)” value is 71 ± 1 [-29]*^# % GIP.

In the test with Human GLP-1R-GFP (human) [12], Tirzepatide (peptide) registered a GLP-1R co-localization with Rab5 early endosomes (BRET of hGLP-1R-Rluc8 with Venus-Rab5, HEK293T), 1 μM, % of GLP-1 (7–36 amide) of 13%; a GLP-1R co-localization with Rab7 late endosomes (BRET of hGLP-1R-Rluc8 with Venus-Rab7, HEK293T), % of GLP-1 (7–36 amide) of 24%; a GLP-1R co-localization with Rab11 recycling endosomes (BRET of hGLP-1R-Rluc8 with Venus-Rab11, HEK293T), decrease against GLP-1 (7–36 amide) of 54%. In the test with Human GLP-1R-GFP (human) [13], the GLP-1R internalization Emax, % of GLP-1 (7–36 amide) (loss of BRET between hGLP-1R-Rluc8 and Venus-KRAS, HEK293T) came out at 13%.

What is called Emax is the greatest response seen or fitted, relative to the assay's reference.
